Where two headings read alike, the source gives them in different places.
Columns and labels:
[1] = test system: PANC1 cells; test: Glycogen content in PANC1 cells; format: cell-based, human; conditions: PANC1, CBS2, 3 hours
Description: (§1) Glycogen was quantified using the Glycogen Assay Kit II (colorimetric) from AbCam (ab169558) according to manufacturer's instructions. Briefly, approximately 2×10^6 cells were washed with ice-cold PBS and collected via scraping in 300 μL ice-cold ddH2O. Cells were immediately sonicated on ice for 5× […] pulses with a probe sonicator (Misonix Inc, model XL2000), then heated to 80° C. for 10 min. Samples were stored O/N at −20° C., then thawed, centrifuged at 12,000×g for 10 min and the supernatants collected for glycogen hydrolysis and quantification according to manufacturer's instructions.
C. Comparison of endogenous glycogen stores and their devimistat-induced depletion in PANC1 and AsPC1 cells. Cells were treated in CBS2 for 3 hours with 30 μM devimistat or mock treated (FIG. 2C, left), or treated for 3 hours with the indicated devimistat doses (FIG. 2C, right). Glycogen quantitation is described in Methods, above. ** indicates p<0.01. **** indicates p<0.0001.
(§2) D. Effects of anti-metabolism agents on glycogen consumption in PANC1 and AsPC1 cells. […] Glycogen content was measured in cell lysates (see Methods, above) and the results are presented in the left and middle graphs in FIG. 3D (note the different vertical scales for PANC1 and AsPC1 plots).

[2] = test system: PANC1 cells; test: Devimistat-induced cell death (ATP after recovery) in PANC1 cells; format: cell-based, human; conditions: PANC1, nutrient-free CBS2, treatment followed by recovery in serum-free RPMI
Description: (§3) Cells were plated at 80% confluency in complete RPMI in black, clear bottom 96-well plates or 35-mm dishes for ATP, protein and glycogen analysis, or glass coverslips for fluorescence visualization. To create low nutritional conditions, cells were seeded in complete media, after 24 hours cells were transferred to serum free RPMI for 18-24 hours. Prior to drug treatment, cells were incubated in a nutrient-free carbonate buffered salt solution (CBS2) for 3 hours. Drug treatments were then carried out in CBS2 with addition of nutrient sources and/or chemical agents as described in the Examples and Figures.
(§4) LOGIC: High throughput, plate reader assays for cell death essentially always ultimately depend on metabolic activity of cells to identify viability, directly or indirectly. Thus, strong inhibition of metabolic activity by anti-metabolism agents like those described herein can confound cell death analysis by such assays. […] The inventors thus used a recovery-based assay wherein cells are treated with anti-metabolic agents under conditions where mitochondrial metabolism is (or becomes) limiting on viability. After experimental treatment, drug and media are removed and cells are allowed to recover in serum-free RPMI. RPMI provides high levels of glucose in support of glycolytic ATP generation (independently of mitochondrial function), allowing viable cells to recover ATP levels that are ultimately measured in the plate assay to score cell viability. Under these conditions, cells that are committed to execution of cell death by the experimental treatment score as dead and cells that have not committed to cell death recover ATP levels and score as viable.
Specifically, after exposure to the treatments indicated, cells are allowed to recover ([…]) in RPMI without serum. Survival is assessed by conventional luminescence measurement of ATP levels after this recovery.
TECHNICAL DETAILS: Immediately after drug treatments, acute ATP levels of cells in black, clear bottom 96-well plates were measured using the CellTiter-Glo® Luminescent Cell Viability Assay (catalog #G775B) following Promega (Madison, WI) protocols. To assess cell viability, after drug treatments, drug/agent-containing medium was replaced with serum-free RPMI and cells were incubated for an additional 17-24 hours to allow recovery of viable cells, without additional cell division. After this recovery period ATP levels were measured using the CellTiter-Glo® Luminescent Cell Viability Assay as described above.
A. Exogenous glucose protects from devimistat-induced cell death. Four different cell lines were exposed for 15 hours (PANC1, AsPC1, H460) or 8 hours (PC3) to the indicated range of devimistat doses in the absence of exogenous nutrients (in carbonate buffered balanced salts solution, CBS2) after 3 hours of preincubation in CBS2 (for cell adaptation and to equilibrate soluble nutrient pools). Cells were exposed to the treatments indicated, followed by recovery (24 hours) in RPMI without serum (providing nutrient support for viable cell recovery, without serum factors for cell division). Survival is assessed by conventional luminescence measurement of ATP levels after this recovery. […] The relatively large quantitative differences in devimistat sensitivity between cell lines under exogenous nutrient deprivation are characteristic of each line (see examples below), with small experiment-to-experiment variation. […]

[3] = test system: AsPC1 cells; test: Glycogen content in AsPC1 cells; format: cell-based, human; conditions: AsPC1, CBS2, 3 hours
Description: as §1
C. […] Cells were treated in CBS2 for 3 hours with 30 μM devimistat or mock treated (FIG. 2C, left), or treated for 3 hours with the indicated devimistat doses (FIG. 2C, right).
as §2

[4] = test system: AsPC1 cells; test: Devimistat-induced cell death (ATP after recovery) in AsPC1 cells; format: cell-based, human; conditions: for sensitization to devimistat-induced cell death, agent combined with devimistat: AsPC1, nutrient-free CBS2, treatment followed by recovery in serum-free RPMI; for Devimistat synergy: devimistat-induced cell death, no exogenous carbon, 15 hours treatment then recovery
Description: as §3, with “To create low nutritional conditions, cells were seeded in complete media, after 24 hours cells were transferred to serum free RPMI for 18-24 hours.” left out
as §4, with “viability.” for “viability. Under these conditions, cells that are committed to execution of cell death by the experimental treatment score as dead and cells that have not committed to cell death recover ATP levels and score as viable.”
Survival is assessed by conventional luminescence measurement of ATP levels after this recovery.
TECHNICAL DETAILS: Immediately after drug treatments, acute ATP levels of cells in black, clear bottom 96-well plates were measured using the CellTiter-Glo® Luminescent Cell Viability Assay (catalog #G775B) following Promega (Madison, WI) protocols. […] After this recovery period ATP levels were measured using the CellTiter-Glo® Luminescent Cell Viability Assay as described above.
Survival is assessed by conventional luminescence measurement of ATP levels after this recovery. See the Methods section above for a detailed description of this assay and its validation.

[5] = test system: AsPC1 cells; test: Acute ATP synthesis rescue by exogenous carbon sources in AsPC1 cells treated with devimistat and GPi; format: cell-based, human; conditions: for inhibition of oleic acid (OA)-driven acute ATP synthesis / OA rescue / OA rescue blockade: 50 μM oleic acid; for OA rescue blockade: acute ATP synthesis, 50 μM GPi
[6] = test system: AsPC1 xenograft; test: AsPC1 xenograft tumor growth, crizotinib and devimistat; format: in vivo, mice; conditions: crizotinib oral gavage, devimistat IP, MWF
Description: Female, 6-week-old, CD1-nu/nu mice were inoculated with 2.5 million PANC-1 cell in 100 μL of HBSS or 5 million AsPC-1 cells in HBSS. Treatment commenced when tumors reached 100 mm^3 and lasted for the times indicated in the Examples and Figures. Mice were treated three times per week (MWF) with vehicle or drugs as indicated in the Examples and Figures. Tumors were measured once per week. […] Use of Matrigel for tumor inoculation was avoided in TGI experiments with this class of agents.
D. Assessment of CRZ and/or devimistat effects on AsPC1 xenograft tumor growth in vivo. Tumors were inoculated subcutaneously on the flank and drug combinations indicated in FIG. 8C were administered intraperitoneally (devimistat) or by oral gavage (CRZ) three days per week (MWF). Tumor size was estimated by caliper assessment of tumor radius and calculation of volume (see Methods).

[7] = test system: AsPC1 cells; test: CO2 release from 14C-oleic acid in AsPC1 cells; format: cell-based, human; conditions: AsPC1, CBS2, 50 μM GPi, 40 μM oleic acid
[8] = AsPC1, 50 μM GPi, 60 μM devimistat

Row | Structure (SMILES) | glycogen consumption [3] | sensitization to devimistat-induced cell death, agent combined with devimistat [4] | inhibition of oleic acid (OA)-driven acute ATP synthesis / OA rescue [5, 8] | OA rescue blockade ([5]; 60 μM devimistat) | also measured
1 | CN(C)C(=O)[C@H](O)[C@H](Cc1ccccc1)NC(=O)c1cc2cc(Cl)ccc2[nH]1 [CP-91149, 5-chloro-N-[(1S,2R)-3-(dimethylamino)-2-hydroxy-3-oxo-1-(phenylmethyl)propyl]-1H-indole-2-carboxamide] | reduces glycogen consumption | Synergy observed |  |  | glycogen consumption [1]: reduces glycogen consumption; sensitization to devimistat-induced cell death, agent combined with devimistat [2]: interacts more weakly with devimistat
2 | CC[C@H]1/C=C/C=C/C[C@@H](C)[C@H](O)[C@@](C)(O)C(=O)[C@@H](C)[C@H](O)[C@@H](C)C(=O)[C@@H](C)[C@H](O)[C@@H](C)/C=C/C(=O)O[C@@H]2[C@H](C)[C@H](CC1)O[C@]1(CC[C@H](C)[C@H](C[C@@H](C)O)O1)[C@H]2C [oligomycin] | induce accelerated glycogen depletion |  |  |  | 
3 | CCN(CCO)CCCC(C)Nc1ccnc2cc(Cl)ccc12 (stereo not shown) [HCQ] | significantly accelerates glycogen consumption | Synergy observed |  |  | glycogen consumption [1]: significantly accelerates glycogen consumption; sensitization to devimistat-induced cell death, agent combined with devimistat [2]: Synergy observed
4 | Oc1c(Cl)cc(Cl)c(Cl)c1Cc1c(O)c(Cl)cc(Cl)c1Cl [hexachlorophene] |  |  |  |  | blockade of glutamine rescue from devimistat inhibition of ATP synthesis [5]: blockade
5 | CSc1cccc(Nc2ncc3cc(-c4c(Cl)cccc4Cl)c(=O)n(C)c3n2)c1 [PD-173955] |  | more limited sensitization | little or no inhibition | No | Devimistat synergy [4]: No
6 | C=C(C)[C@H]1Cc2c(ccc3c2O[C@@H]2COc4cc(OC)c(OC)cc4[C@@H]2C3=O)O1 [rotenone] | induce accelerated glycogen depletion |  |  |  | 
7 | C[C@@H](Oc1cc(-c2cnn(C3CCNCC3)c2)cnc1N)c1c(Cl)ccc(F)c1Cl [Crizotinib, (R)-3-[1-(2,6-Dichloro-3-fluorophenyl)ethoxy]-5-[1-(piperidin-4-yl)-1H-pyrazol-4-yl]pyridin-2-amine] |  | robustly sensitize | robust inhibition | Yes | sensitization to devimistat tumor cell killing in vivo [6]: sensitizes to devimistat tumor cell killing in vitro and in vivo
8 | CCOC(=O)[C@@]1(CCCCCCOc2ccc(Cl)cc2)CO1 [ETX] |  | enhances devimistat effects | strongly inhibited |  | oleic acid beta-oxidation (CO2 release from oleate) [7]: block oleic acid beta-oxidation
9 | [H]/N=C(/N)N/C(=N/[H])NCCc1ccccc1 [phenformin] |  | sensitizes AsPC1 to devimistat |  |  | 
10 | O=C(Cc1cccc(OC(F)(F)F)c1)Nc1ccc(CCCCc2nnc(NC(=O)Cc3ccccn3)s2)nn1 [CB-839, 2-(pyridin-2-yl)-N-(5-(4-(6-(2-(3-(trifluoromethoxy)phenyl)acetamido)pyridazin-3-yl)butyl)-1,3,4-thiadiazol-2-yl)acetamide] |  | modest effects on devimistat sensitivity |  |  | blockade of glutamine rescue from devimistat inhibition of ATP synthesis ([5]; AsPC1, 50 μM GPi, 60 μM devimistat, 2 mM glutamine, CB-839 0.2 μM, hexachlorophene 3 μM, 4.5 hours): blockade; sensitization to devimistat-induced cell death, agent combined with devimistat [2]: modest effects on devimistat sensitivity
11 | COc1cc2c(Oc3ccc(NC(=O)C4(C(=O)Nc5ccc(F)cc5)CC4)cc3F)ccnc2cc1OCCCN1CCOCC1 [Foretinib, N1′-[3-fluoro-4-[[6-methoxy-7-(3-morpholinopropoxy)-4-quinolyl]oxy]phenyl]-N1-(4-fluorophenyl)cyclopropane-1,1-dicarboxamide] |  | robustly sensitize | robust inhibition | Yes | Devimistat synergy [4]: Yes
12 | CNC(=O)c1c(F)cccc1Nc1nc(Nc2cc3c(cc2OC)CCN3C(=O)CN(C)C)nc2[nH]ccc12 [GSK1838705A] |  | more limited sensitization | little or no inhibition | No | Devimistat synergy [4]: No
